ChEMBL document CHEMBL2385001, “Synthesis and evaluation of 7-chloro-4-(piperazin-1-yl)quinoline-sulfonamide as hybrid antiprotozoal agents” (Bioorg Med Chem, 2013)

Tests used:
[1] = Inhibition of beta-haematin formation after 24 hrs by microtiter plate assay; type: functional
[2] = Cytotoxicity against human HT-29 cells assessed as growth inhibition at 100 uM after 48 hrs by MTT assay relative to control; type: cell-based; settings: read-out: GI
[3] = Hemolytic activity in human RBC at 100 uM after 48 hrs relative to control; type: ADME, cell-based, Erythrocyte; settings: red blood cells, read-out: Activity
[4] = test system: Entamoeba histolytica; assay: Antiamoebic activity against trophozoite stage of Entamoeba histolytica HM-1:IMSS assessed as growth inhibition after 72 hrs by microdilution method; type: functional, organism-based
[5] = test system: Plasmodium falciparum; assay: Antimalarial activity against chloroquine-resistant Plasmodium falciparum FCR-3 assessed as growth inhibition after 24 hrs by [3H]-hypoxanthine incorporation assay; type: functional; settings: FCR-3/Gambia
[6] = Cytotoxicity against human HT-29 cells assessed as cell viability at 100 uM after 48 hrs by MTT assay relative to control; type: cell-based; settings: read-out: Activity
[7] = Safety index, ratio of cytotoxicity against human HT-29 cells to antiamoebic activity against trophozoite stage of Entamoeba histolytica HM-1:IMSS; type: toxicity, cell-based; settings: read-out: Selectivity Index
[8] = Safety index, ratio of cytotoxicity against human HT-29 cells to antimalarial activity against chloroquine-resistant Plasmodium falciparum FCR-3; type: toxicity, cell-based; settings: read-out: Selectivity Index

SMILES	IC50 [1]	inhibition at 48 h, 100 µM [2]	hemolysis at 48 h, 100 µM [3]	IC50 [4]	IC50 [5]	viability at 48 h, 100 µM [6]	selectivity ratio [7]	selectivity ratio [8]
O=S(=O)(c1ccccc1)N1CCN(c2ccnc3cc(Cl)ccc23)CC1	18.1 µM	45%	0.01%	32.8 µM	4.02 µM	55.1%	–	–
Cc1ccc(S(=O)(=O)N2CCN(c3ccnc4cc(Cl)ccc34)CC2)cc1	8.92 µM	–	0.62%	4.54 µM	4.22 µM	64.5%	14	–
CS(=O)(=O)N1CCN(c2ccnc3cc(Cl)ccc23)CC1	13.5 µM	–	0.01%	> 100 µM	8.54 µM	73%	–	–
O=S(=O)(c1ccc(Cl)cc1)N1CCN(c2ccnc3cc(Cl)ccc23)CC1	34.8 µM	–	1.4%	25.7 µM	3.27 µM	61.3%	–	–
O=S(=O)(c1cc(Cl)ccc1Cl)N1CCN(c2ccnc3cc(Cl)ccc23)CC1	47.2 µM	–	2.06%	30.2 µM	2.55 µM	63.4%	–	–
O=S(=O)(c1ccc2ccccc2c1)N1CCN(c2ccnc3cc(Cl)ccc23)CC1	71.2 µM	–	0.97%	23.4 µM	3.06 µM	59.8%	–	–
CC(C)(C)c1ccc(S(=O)(=O)N2CCN(c3ccnc4cc(Cl)ccc34)CC2)cc1	72.4 µM	–	1.36%	2.86 µM	6.09 µM	67.7%	24	–
COc1ccc(S(=O)(=O)N2CCN(c3ccnc4cc(Cl)ccc34)CC2)cc1	9.04 µM	–	6.03%	8.23 µM	3.3 µM	68.1%	–	–
O=[N+]([O-])c1ccccc1S(=O)(=O)N1CCN(c2ccnc3cc(Cl)ccc23)CC1	63.5 µM	17%	0.01%	> 100 µM	1.94 µM	86.1%	–	44
CCCS(=O)(=O)N1CCN(c2ccnc3cc(Cl)ccc23)CC1	1.79 µM	17%	0.82%	> 100 µM	1.72 µM	67.1%	–	39
CC(=O)Nc1ccc(S(=O)(=O)N2CCN(c3ccnc4cc(Cl)ccc34)CC2)cc1	8.84 µM	17%	0.83%	9.61 µM	1.16 µM	96.8%	–	84
CC[C@@]1(O)C(=O)OCc2c1cc1n(c2=O)Cc2cc3ccccc3nc2-1 [CAMPTOTHECIN]	–	52%	–	–	–	48.3%	–	–
C=C[C@H]1CN2CC[C@H]1C[C@H]2[C@H](O)c1ccnc2ccc(OC)cc12 [QUININE]	22.1 µM	–	2.14%	–	0.17 µM	–	–	–
